Experimental data reported in patent publication US20050096254A1, “Peptide deformylase activated prodrugs” (priority 2002, published 2005).
Values after ≈ are worked out from the molar mass of the structure shown. Like-named read-outs stand apart in the source and are kept apart here.

What was measured:
Stability in PBS, pH 7.4 = type: physicochemical; conditions: for half-life: pH 7.4, read-out: Stability PBS, pH 7.4 t1/2 (converted); for Stability PBS, pH 7.4 % left after 6 hrs: pH 7.4, after 6 hrs
[1] = Stability in Mueller Hinton Broth; type: physicochemical; conditions: for half-life: read-out: Stability Mueller Hinton Broth t1/2 (converted)
[2] = Stability in Mouse Plasma; type: in vitro ADME; conditions: for half-life: read-out: Stability Mouse Plasma t1/2
[3] = Stability in Human Plasma; type: in vitro ADME; conditions: for half-life: read-out: Stability Human Plasma t1/2
E. coli = experiment: MIC susceptibility testing (modified NCCLS); type: cell-based; conditions: Escherichia coli, ATCC25922; Table 6, E. coli ATCC 25922; read-out: MIC
Experimental: (§1) The NCCLS (National Committee for Clinical Laboratory Standards), method to determine MIC's of antimicrobial compounds is modified for high-throughput screening. All stocks of tested compounds are prepared in either water or in DMSO depending on solubility. At the highest concentration, DMSO content should not exceed 0.5%. Briefly, twenty 2-fold serial dilutions of test compounds from the highest concentration is made in a 384-well microtiter plate. Each well is inoculated with testing bacteria in broth to a final concentration of approximately 1-1.5×10^6 cells/ml. Bacterial growth is determined by the increase of optical density at 600 nm using a microplate reader (Tecan SpectraFluor Plus).

E. faecalis = experiment: MIC susceptibility testing (modified NCCLS); type: cell-based; conditions: Enterococcus faecalis, ATCC29212; Table 6, E. faecalis ATCC 29212; read-out: MIC
Experimental: as §1

S. aureus = experiment: MIC susceptibility testing (modified NCCLS); type: cell-based; conditions: Staphylococcus aureus
Experimental: as §1

P. aeruginosa = experiment: MIC susceptibility testing (modified NCCLS); type: cell-based; conditions: Pseudomonas aeruginosa, ATCC27853; Table 6, P. aeruginosa ATCC 27853; read-out: MIC
Experimental: as §1, with “Each well is inoculated with testing bacteria in broth to a final concentration of approximately 1-1.5×10^6 cells/ml.” left out

PDF = PDF (Escherichia coli, UniProt P0A6K3); conditions: Wei et al. (2000); read-out: Ki (competitive PDF inhibitor); cited from earlier work
Chain of PDF (P0A6K3 whole entry): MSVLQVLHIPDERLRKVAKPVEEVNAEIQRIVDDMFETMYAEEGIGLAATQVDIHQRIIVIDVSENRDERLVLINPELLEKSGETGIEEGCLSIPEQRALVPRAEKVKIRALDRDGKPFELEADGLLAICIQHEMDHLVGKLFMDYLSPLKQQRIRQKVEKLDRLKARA

| Structure (SMILES) | half-life (Stability in PBS, pH 7.4) [h] | half-life [1] [h] | Stability PBS, pH 7.4 % left after 6 hrs (Stability in PBS, pH 7.4) [%] | Stability Mueller Hinton Broth % left after 6 hrs [1] [%] | Stability Mouse Plasma % left after 10 min [2] [%] | half-life [2] [h] | half-life [3] [h] | other results |
| --- | --- | --- | --- | --- | --- | --- | --- | --- |
| CCn1cc(C(=O)O)c(=O)c2cc(F)c(N3CCNCC3)cc21 [Norfloxacin, norfloxacin, reference compound] | – | – | – | – | – | – | – | MIC (E. coli): 15.6 ng/mL (≈ 0.0489 µM); MIC (E. faecalis): 1000 ng/mL (≈ 3.13 µM); MIC (S. aureus; ATCC29213, Table 6, S. aureus (MS) ATCC 29213, read-out: MIC): 500 ng/mL (≈ 1.57 µM); MIC (S. aureus; ATCC33591, Table 6, S. aureus (MR) ATCC 33591, read-out: MIC): 1000 ng/mL (≈ 3.13 µM); MIC (P. aeruginosa): 500 ng/mL (≈ 1.57 µM) |
| Oc1cc(Cl)ccc1Oc1ccc(Cl)cc1Cl [Triclosan, triclosan, reference compound] | – | – | – | – | – | – | – | MIC (S. aureus; ATCC 11632 / MSSA): 1.95 ng/mL (≈ 0.00675 µM); MIC (S. aureus; ATCC 13301 / MSSA): 0.488 ng/mL (≈ 0.00169 µM); MIC (S. aureus; ATCC 14154 / MSSA): 1.95 ng/mL (≈ 0.00675 µM); MIC (S. aureus; ATCC 33591 / MSSA): 7.81 ng/mL (≈ 0.027 µM); MIC (S. aureus; ATCC 33592 / MSSA): 3.91 ng/mL (≈ 0.0135 µM); MIC (S. aureus; ATCC 33593 / MSSA): 0.977 ng/mL (≈ 0.00337 µM); MIC (S. aureus; ATCC 43300 / MSSA): 1.95 ng/mL (≈ 0.00675 µM); MIC (S. aureus; ATCC 700260 / MSSA): 0.244 ng/mL (≈ 0.000843 µM); MIC (S. aureus; ATCC 700698 / MSSA): 3.91 ng/mL (≈ 0.0135 µM); MIC (S. aureus; ATCC 700699 / MSSA): ≥ 4000 ng/mL; MIC (S. aureus; ATCC 700787 / MSSA): 1.95 ng/mL (≈ 0.00675 µM); MIC (S. aureus; ATCC 700788 / MSSA): 31.2 ng/mL (≈ 0.108 µM); MIC (S. aureus; ATCC 700789 / MSSA): 15.6 ng/mL (≈ 0.054 µM) |
| CCCCC(CS)C(=O)NC(CCCNC(=N)N)C(=O)Nc1ccc2ccccc2c1 (centres unmarked) [optimal inhibitor] | – | – | – | – | – | – | – | Ki (PDF): 15 nM |

More lines, main results first:

| half-life (Stability in PBS, pH 7.4) [h] | half-life [1] [h] | Stability PBS, pH 7.4 % left after 6 hrs (Stability in PBS, pH 7.4) [%] | Stability Mueller Hinton Broth % left after 6 hrs [1] [%] | Stability Mouse Plasma % left after 10 min [2] [%] | half-life [2] [h] | half-life [3] [h] | Structure (SMILES) | other results |
| --- | --- | --- | --- | --- | --- | --- | --- | --- |
| 3.3 | 2.9 | – | – | – | – | – | CSCCC(NC=O)C(=O)NC(CC(C)C)C(=O)Oc1c(Br)cc(CO)cc1Br (centres unmarked) [NB3144, 2-(2-formylamino-4-methylsulfanyl-butyrylamino)-4-methyl-pentanoic Acid 2,6-dibromo-hydroxymethyl-phenyl Ester] | – |
| > 12 | > 12 | 99 | 99 | 94 | > 0.333 | > 2 | CSCCC(NC=O)C(=O)NC(CC(C)C)C(=O)Oc1c(-c2ccccc2)cc(CO)cc1-c1ccccc1 (centres unmarked) [NB3145, 2-(2-formylamino-4-methylsulfanyl-butyrylamino)-4-methyl-pentanoic Acid 5′-hydroxymethyl-[1,1′;3′,1″]terphenyl-2′-yl Ester] | Stability Human Plasma % left after 120 min [3]: 94% |
| > 12 | > 12 | 98 | 91 | – | 0.148 | 0.177 | COc1cc(CO)cc(Br)c1OC(=O)C(CC(C)C)NC(=O)C(CCSC)NC=O (centres unmarked) [NB3162, 2-(2-formylamino-4-methylsulfanyl-butyrylamino)-4-methyl-pentanoic Acid 2-bromo-4-hydroxymethyl-6-methoxy-phenyl Ester] | – |
| > 12 | > 12 | 85 | 95 | 94 | > 0.333 | > 2 | CSCCC(NC=O)C(=O)NC(CC(C)C)C(=O)Oc1c(C)cc(CO)cc1C (centres unmarked) [NB3165, 2-(2-formylamino-4-methylsulfanyl-butyrylamino)-4-methyl-pentanoic Acid 4-hydroxymethyl-2,6-dimethyl-phenyl Ester] | Stability Human Plasma % left after 120 min [3]: 94% |
| > 12 | > 12 | 95 | 89 | 88 | > 0.333 | 0.533 | CSCCC(NC=O)C(=O)NC(CC(C)C)C(=O)Oc1c(Br)cc(CO)cc1-c1ccco1 (centres unmarked) [NB3177, 2-(2-Formylamino-4-methylsulfanyl-butyrylamino)-4-methyl-pentanoic Acid 2-bromo-6furan-2-yl-4-hydroxymethyl-phenyl Ester] | – |
